From patent US12358948B2, “Neurotensinergic agonists and methods of using same preventing or treating pain” (priority 2019, dated 2025)
Where two headings read alike, the source gives them in different places. *1 amine or outer side, *2 acyl side, *3 side chain or, on linkers, in order; H or OH if unused. Where a SMILES comes first, the peptide text is derived from it. Bridges are numbered along the chain shown (N, C = ends). [ ]: non-standard residue; d: D form. ξ: configuration not given here. ξαMeNle(6-ylidene) = CC(CCCC=[*:3])(N[*:1])C(=O)[*:2]; Phe(4-Br) = N[C@@H](Cc1ccc(Br)cc1)C(=O)O; Ala(cPent) = N[C@@H](CC1CCCC1)C(=O)O; AllylGly = C=CC[C@H](N)C(=O)O

What was measured:
ileum = experiment: Ileum relaxation assay ex vivo; parameters: species or system rat; details: 10^−11 to 10^−6 M, after contraction with carbachol
Description: The functional ileum bioassay was carried out as described in detail elsewhere. (Van der Poorten, O., Van Den Hauwe, R., Eiselt, E., Betti, C., Guillemyn, K., Chung, N. N., Hall, F., Bihel, F., Schiller, P. W., Tourwé, D., Sarret, P., Gendron, L, . . . Ballet, S. (2017). X-Space Screening of Dermorphin-Based Tetrapeptides through Use of Constrained Arylazepinone and Quinolinone Scaffolds. ACS medicinal chemistry letters, 8(11), 1177-1182) Briefly, rats were euthanized, and 2 cm ileum segments were dissected out before removal of extraneous fat and connective tissue.
The ileum was then mounted under 0.5-g tension in a 10 mL organ bath containing warmed (37° C.) and oxygenated (95% O2, 5% CO2) Krebs solution (6.9 g/L NaCl, 0.145 g/L MgSO4, 2.1 g/L NaHCO3, 0.35 g/L KCl, 0.165 g/L KH2PO4, 1.98 g/L dextrose and 0.28 g/L CaCl2)). […] Contractions of the muscle were recorded via an isometric force transducer (159901A, Radnoti, Monrovia, CA, USA). […]
Each concentration of the compounds tested were followed by 2×15-min washout periods in Krebs solution to allow full relaxation. Dose-response curves were obtained with NT (8-13) (10^−11 to 10^−6) as standard for each ileum and for compound 34(10^−11 to 10^−5) and IC50 values were determined. […]
Data are expressed as mean±standard errors of the mean (SEM). […]

hNTS1 receptor = molecular target: T1, hNTS1 receptor (Homo sapiens, UniProt P30989); experiment: Competitive radioligand binding assay on the hNTS1 receptor; details: membranes of CHO-K1 cells expressing hNTS1
T1 construct: membranes prepared from them
How it was run: (§1)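 IC50 values came from one-site competition curves against ¹²⁵I-[Tyr³]-NT after 60 min at 25 °C (pH 7.5 Tris, 0.2% BSA), with analogues at 10⁻¹¹–10⁻⁴ M and nonspecific binding set by 10⁻⁵ M NT(8-13). hNTS1 used 15 µg CHO-K1 membranes with […] tracer; hNTS2 used 50 µg 1321N1 membranes with […] tracer.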

hNTS2 receptor = molecular target: T2, hNTS2 receptor (Homo sapiens, UniProt O95665); experiment: Competitive radioligand binding assay on the hNTS2 receptor; details: for IC50: membranes of 1321N1 cells expressing hNTS2; for Selectivity: ratio IC50 for NTS1 : IC50 for NTS2
T2 construct: membranes prepared from them
How it was run: as §1

Sprague-Dawley rats = experiment: Tail-flick test (acute thermal pain), intrathecal injection; format: in vivo, rat; details: 61 nmol/kg i.t.
Description: Rats were housed two per cage on Aspen shavings in a quiet room and kept on a 12 h light/dark cycle and allowed ad libitum access to food and water. The experimental procedures in this study were approved by the Animal Care Committee of Université de Sherbrooke and were in accordance with policies and directives of the Canadian Council on Animal Care.
Tail-flick test: The tail flick test was used as outcome measures heat-induced pain in animals and as indicators of a compound's analgesic efficacy.
Acute pain was assessed using the Tail flick test (Tail Flick Analgesia meterV2.00, Colombus Instruments, Columbus, Ohio, USA). Tail flick test measures sensitivity to a high-intensity light beam focused on the rat tail. The tail flick apparatus was set at a light intensity of 6 and a cutoff of 10 seconds. The latency to flick the tail out of the path of the light beam corresponds to the measure of pain sensitivity or analgesia.
Before testing, animals were individually acclimatized to manipulations and behavioral apparatus 5 min/day for three consecutive days. On the test day, latencies baseline measures were taken before drug injection to provide a mean baseline. The compounds were diluted in 0.9% saline at the desired dose. The effects of the compound or saline on thermal nociception were assessed every 10 min for up to 60 min following i.t. administration.
Moreover, tail flick latencies were converted into the percent maximal possible effect (% MPE) at the time of maximal peak of analgesia. % MPE were calculated according to the following formula: % MPE=[(Test latency)−(Saline latency)]/[(Cutoff)−(Saline latency)]×100. Data are expressed as mean±SEM of 5-8 animals for each dose.
Then, ED50 values were determined using the dose-response stimulation log(agonist) vs response (four parameters).
Data are expressed as mean±standard errors of the mean (SEM). All graphs and statistical analysis were performed using GraphPad Prism™ 7 (GraphPad software, La Jolla, CA, USA). […] A two-way ANOVA followed by Tukey's multiple comparisons test was used to determine the significant differences in changes in body temperature between different concentrations of compounds and saline (FIG. 9). The % MPE for the tail-flick test and the areas under the curve for the formalin test were analyzed using a one-way ANOVA followed by a Dunnett's multiple comparisons test to compare different concentrations of compounds and saline treatment (FIGS. 2B, 4B, 7A-B and 8B-D). […] Nonlinear regression using three parameters was performed for % of ileum relaxation and IC50 value was obtained from the resulting dose-response curve (FIG. 11). A difference in response was considered significant with p-values *p<0.05, **p<0.01, ***p<0.001 and **p<0.0001.

[1] = IC50 NTS1, displacement of 125I-[Tyr3]-NT
[2] = IC50 NTS2, displacement of 125I-[Tyr3]-NT

T2 sequence (O95665 whole entry): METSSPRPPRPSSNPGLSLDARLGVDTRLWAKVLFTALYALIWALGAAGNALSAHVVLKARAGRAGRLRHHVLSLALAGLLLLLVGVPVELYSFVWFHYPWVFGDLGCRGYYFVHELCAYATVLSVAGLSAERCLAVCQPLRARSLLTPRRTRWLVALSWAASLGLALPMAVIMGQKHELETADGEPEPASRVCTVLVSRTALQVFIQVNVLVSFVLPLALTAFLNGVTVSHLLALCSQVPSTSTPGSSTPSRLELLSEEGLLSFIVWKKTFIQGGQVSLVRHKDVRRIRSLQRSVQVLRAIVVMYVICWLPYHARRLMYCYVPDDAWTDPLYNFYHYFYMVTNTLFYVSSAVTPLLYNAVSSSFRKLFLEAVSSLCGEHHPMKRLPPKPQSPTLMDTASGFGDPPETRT
T1 sequence (P30989 whole entry): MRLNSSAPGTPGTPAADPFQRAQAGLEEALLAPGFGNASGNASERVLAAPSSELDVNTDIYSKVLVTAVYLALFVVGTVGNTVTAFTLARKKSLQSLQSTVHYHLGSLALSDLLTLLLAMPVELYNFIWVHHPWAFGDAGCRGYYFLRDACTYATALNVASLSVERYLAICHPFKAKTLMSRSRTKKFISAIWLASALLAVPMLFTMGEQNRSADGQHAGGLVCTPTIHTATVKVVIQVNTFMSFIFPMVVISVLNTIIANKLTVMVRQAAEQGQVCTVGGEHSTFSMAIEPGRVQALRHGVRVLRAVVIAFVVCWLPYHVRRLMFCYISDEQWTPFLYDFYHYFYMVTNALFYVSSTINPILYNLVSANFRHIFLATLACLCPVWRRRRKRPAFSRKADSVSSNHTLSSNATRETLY

Row | Structure (SMILES) | IC50 (ileum) [nM] | IC50 (hNTS1 receptor; displacement of 125I-[Tyr3]-NT, read-out: IC50 NTS1) [µM] | IC50 (hNTS2 receptor; displacement of 125I-[Tyr3]-NT, read-out: IC50 NTS2 (converted)) [nM] | Selectivity (hNTS2 receptor) | Acute pain (tail beam) (i.t.) (Sprague-Dawley rats; rat) | IC50 (hNTS1 receptor; [1]) [µM] | IC50 (hNTS2 receptor; [2]) [nM] | latency of the tail-flick reflex compared to baseline (Sprague-Dawley rats)
1 | CC[C@H](C)[C@H](NC(=O)[C@H](Cc1ccc(O)cc1)NC(=O)[C@@H]1CCCN1C(=O)[C@H](CCCNC(=N)N)NC(=O)[C@@H](N)CCCNC(=N)N)C(=O)N[C@@H](CC(C)C)C(=O)O [NT(8-13), Neurotensin 8-13, reference compound] | 3.9 | – | – | – | – | – | – | –
2 | CC(C)C[C@H](NC(=O)[C@H](Cc1ccc(O)cc1)NC(=O)[C@@H]1CC=CCCC(=O)N[C@@H](CCCCN)C(=O)N[C@@H](CCCCN)C(=O)N1)C(=O)O [compound 60, c[K(Pentenoyl)KG(All)]YL] | – | > 100 | 47 | >2127.7 | No effect (61 nmol/kg) | – | – | –
3 | CC(C)C[C@H](NC(=O)[C@H](Cc1ccc(Br)cc1)NC(=O)[C@@H]1CC=CC[C@H](N)C(=O)N[C@@H](CCCCN)C(=O)N[C@@H](CCCCN)C(=O)N1)C(=O)O [compound 116, c[G(All)KKG(All)]F(4-bromo)L] (H-[AllylGly]KK[AllylGly][Phe(4-Br)]L-OH; staple 1-4) | – | – | – | >6443 | – | > 100 | 15.5 | sustainably increased latency
4 | NCCCC[C@@H]1NC(=O)[C@H](CCCCN)NC(=O)[C@@H](N)CC=CC[C@@H](C(=O)N[C@@H](Cc2ccc(Br)cc2)C(=O)N[C@@H](CC2CCCC2)C(=O)O)NC1=O [compound 127, c[G(All)KKG(All)]F(4-bromo)A(cyclopentyl)] (H-[AllylGly]KK[AllylGly][Phe(4-Br)][Ala(cPent)]-OH; staple 1-4) | – | – | – | 49505 | – | > 100 | 2 | sustainably increased latency
5 | CC1(C(=O)N[C@@H](Cc2ccc(O)cc2)C(=O)N[C@@H](CC2CCCC2)C(=O)O)CCCC=CC[C@H](N)C(=O)N[C@@H](CCCCN)C(=O)N[C@@H](CCCCN)C(=O)N1 (stereo partly drawn) [compound 128, c[G(All)KKG((S)-alpha-Me-(4-pentenyl))]YA(cyclopentyl)] (H-[AllylGly]KK[ξαMeNle(6-ylidene)]Y[Ala(cPent)]-OH; staple 1-4) | – | – | – | 12788 | – | > 100 | 7.8 | sustainably increased latency
6 | CC1(C(=O)N[C@@H](Cc2ccc(Br)cc2)C(=O)N[C@@H](CC2CCCC2)C(=O)O)CCCC=CC[C@H](N)C(=O)N[C@@H](CCCCN)C(=O)N[C@@H](CCCCN)C(=O)N1 (stereo partly drawn) [compound 133, c[G(All)KKG(alpha-Me-(4-pentenyl))]F(4-bromo)A (cyclopentyl)] (H-[AllylGly]KK[ξαMeNle(6-ylidene)][Phe(4-Br)][Ala(cPent)]-OH; staple 1-4) | – | – | – | 33333 | – | > 100 | 3 | sustainably increased latency
